Data published in US10358436B2, “Kinase inhibitors and method of treating cancer” (University Health Network, priority 2010, dated 2019).

What was measured:
[1] = biological target: FLT3 (Homo sapiens (Human), UniProt P36888); details: read-out: % Inhibition @ 0.1 μM, Flt3
[2] = biological target: Arg (Homo sapiens (Human), UniProt P42684); type: biochemical; details: read-out: % Inhibition @ 0.1 μM, Arg
[3] = biological target: Ron (Homo sapiens (Human), UniProt Q04912); type: biochemical; details: read-out: % Inhibition @ 0.1 μM, Ron
[4] = biological target: Bmx (Homo sapiens (Human), UniProt P51813); type: biochemical; details: read-out: % Inhibition @ 0.1 μM, Bmx
[5] = biological target: Ros (Homo sapiens (Human), UniProt P08922); type: biochemical; details: read-out: % Inhibition @ 0.1 μM, Ros
[6] = biological target: FGFR2 (Homo sapiens (Human), UniProt P21802); type: biochemical; details: read-out: % Inhibition @ 0.1 μM, FGFR2
[7] = biological target: Lck (Homo sapiens (Human), UniProt P06239); type: biochemical; details: read-out: % Inhibition @ 0.1 μM, Lck
[8] = biological target: MuSK (Homo sapiens (Human), UniProt O15146); type: biochemical; details: read-out: % Inhibition @ 0.1 μM, MuSK
[9] = biological target: Tie2 (Y897S) (Homo sapiens (Human), UniProt Q02763, Y897S); type: biochemical; details: read-out: % Inhibition @ 0.1 μM, Tie2 (Y897S)
[10] = biological target: Arg (m) (Mus musculus (Mouse), UniProt Q4JIM5); type: biochemical; details: read-out: % Inhibition @ 0.1 μM, Arg (m)
[11] = biological target: Aurora A (Homo sapiens (Human), UniProt O14965); type: biochemical; details: read-out: % Inhibition @ 0.1 μM, Aurora-A
[12] = biological target: Abl (M351T) (Homo sapiens (Human), UniProt P00519, M351T); type: biochemical; details: read-out: % Inhibition @ 0.1 μM, Abl (M351T)
[13] = biological target: FGFR1 (V561M) (Homo sapiens (Human), UniProt P11362, V561M); type: biochemical; details: read-out: % Inhibition @ 0.1 μM, FGFR1 (V561M)
[14] = biological target: Abl (H396P) (Homo sapiens (Human), UniProt P00519, H396P); type: biochemical; details: read-out: % Inhibition @ 0.1 μM, Abl (H396P)
[15] = biological target: ARK5 (Homo sapiens (Human), UniProt O60285); type: biochemical; details: read-out: % Inhibition @ 0.1 μM, ARK5
Sequence of ARK5 (O60285 whole entry): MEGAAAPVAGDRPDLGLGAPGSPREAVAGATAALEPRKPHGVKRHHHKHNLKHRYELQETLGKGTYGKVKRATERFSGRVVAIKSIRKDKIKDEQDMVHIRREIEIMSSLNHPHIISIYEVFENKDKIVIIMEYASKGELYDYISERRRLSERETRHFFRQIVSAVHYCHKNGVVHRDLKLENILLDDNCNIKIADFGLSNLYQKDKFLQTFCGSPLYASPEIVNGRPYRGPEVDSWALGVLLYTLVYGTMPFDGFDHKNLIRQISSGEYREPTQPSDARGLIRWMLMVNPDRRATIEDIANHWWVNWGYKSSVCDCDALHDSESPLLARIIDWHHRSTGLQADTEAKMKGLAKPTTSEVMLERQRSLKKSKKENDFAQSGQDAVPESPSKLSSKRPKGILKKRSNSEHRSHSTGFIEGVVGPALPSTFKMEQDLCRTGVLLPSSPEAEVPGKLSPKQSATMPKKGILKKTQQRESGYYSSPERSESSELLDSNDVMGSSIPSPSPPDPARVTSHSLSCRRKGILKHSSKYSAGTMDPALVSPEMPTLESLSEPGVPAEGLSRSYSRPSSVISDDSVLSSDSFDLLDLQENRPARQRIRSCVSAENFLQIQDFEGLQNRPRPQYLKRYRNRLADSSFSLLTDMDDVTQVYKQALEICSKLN

[16] = biological target: Abl (Y253F) (Homo sapiens (Human), UniProt P00519, Y253F); type: biochemical; details: read-out: % Inhibition @ 0.1 μM, Abl (Y253F)
[17] = biological target: Aurora B (Homo sapiens (Human), UniProt Q96GD4); details: read-out: % Inhibition @ 0.1 μM, Aurora-B
Sequence of Aurora B (Q96GD4 whole entry): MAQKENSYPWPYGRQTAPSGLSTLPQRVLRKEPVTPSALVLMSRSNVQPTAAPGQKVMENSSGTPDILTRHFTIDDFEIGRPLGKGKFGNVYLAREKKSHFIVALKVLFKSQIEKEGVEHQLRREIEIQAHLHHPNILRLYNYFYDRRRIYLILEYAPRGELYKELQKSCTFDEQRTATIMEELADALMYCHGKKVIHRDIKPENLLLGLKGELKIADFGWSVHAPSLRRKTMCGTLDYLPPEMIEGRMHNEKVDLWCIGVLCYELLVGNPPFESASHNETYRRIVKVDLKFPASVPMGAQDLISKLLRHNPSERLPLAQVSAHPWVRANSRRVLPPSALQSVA

[18] = biological target: Tie2 (R849W) (Homo sapiens (Human), UniProt Q02763, R849W); type: biochemical; details: read-out: % Inhibition @ 0.1 μM, Tie2 (R849W)
[19] = biological target: ALK (Homo sapiens (Human), UniProt Q9UM73); type: biochemical; details: read-out: % Inhibition @ 0.1 μM, ALK
[20] = biological target: Ret (V804L) (Homo sapiens (Human), UniProt P07949, V804L); type: biochemical; details: read-out: % Inhibition @ 0.1 μM, Ret (V804L)
Sequence of Ret (V804L) (P07949 29-1114 V804L): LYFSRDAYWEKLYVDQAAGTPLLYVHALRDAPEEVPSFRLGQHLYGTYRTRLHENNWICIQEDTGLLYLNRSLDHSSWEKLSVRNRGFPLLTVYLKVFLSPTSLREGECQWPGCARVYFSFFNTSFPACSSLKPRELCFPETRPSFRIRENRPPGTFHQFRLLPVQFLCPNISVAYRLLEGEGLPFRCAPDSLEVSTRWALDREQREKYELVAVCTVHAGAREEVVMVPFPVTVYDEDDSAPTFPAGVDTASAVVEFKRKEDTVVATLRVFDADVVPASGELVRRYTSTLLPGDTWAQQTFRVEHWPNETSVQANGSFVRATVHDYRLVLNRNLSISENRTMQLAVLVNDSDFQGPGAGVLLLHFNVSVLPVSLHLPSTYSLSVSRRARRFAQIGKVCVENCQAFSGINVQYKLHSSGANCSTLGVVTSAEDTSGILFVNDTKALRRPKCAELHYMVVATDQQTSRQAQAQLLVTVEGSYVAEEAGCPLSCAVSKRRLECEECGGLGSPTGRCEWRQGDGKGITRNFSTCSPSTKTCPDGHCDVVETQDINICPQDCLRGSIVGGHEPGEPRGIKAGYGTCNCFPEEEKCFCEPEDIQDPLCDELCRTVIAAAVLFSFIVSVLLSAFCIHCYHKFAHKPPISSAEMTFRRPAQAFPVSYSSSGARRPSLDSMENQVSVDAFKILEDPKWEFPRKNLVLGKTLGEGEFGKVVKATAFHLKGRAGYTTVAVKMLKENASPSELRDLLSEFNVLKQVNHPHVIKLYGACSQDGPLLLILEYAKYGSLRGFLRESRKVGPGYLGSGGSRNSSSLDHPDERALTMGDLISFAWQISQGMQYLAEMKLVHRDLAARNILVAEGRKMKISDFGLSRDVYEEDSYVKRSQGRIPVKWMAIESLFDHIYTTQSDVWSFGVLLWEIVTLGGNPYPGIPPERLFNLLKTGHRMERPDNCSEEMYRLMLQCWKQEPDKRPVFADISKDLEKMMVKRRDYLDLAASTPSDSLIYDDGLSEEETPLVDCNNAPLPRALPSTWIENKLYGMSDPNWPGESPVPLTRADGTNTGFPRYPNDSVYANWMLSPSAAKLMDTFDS

[21] = biological target: FGFR3 (Homo sapiens (Human), UniProt P22607); type: biochemical; details: read-out: % Inhibition @ 0.1 μM, FGFR3
Sequence of FGFR3 (P22607 23-806): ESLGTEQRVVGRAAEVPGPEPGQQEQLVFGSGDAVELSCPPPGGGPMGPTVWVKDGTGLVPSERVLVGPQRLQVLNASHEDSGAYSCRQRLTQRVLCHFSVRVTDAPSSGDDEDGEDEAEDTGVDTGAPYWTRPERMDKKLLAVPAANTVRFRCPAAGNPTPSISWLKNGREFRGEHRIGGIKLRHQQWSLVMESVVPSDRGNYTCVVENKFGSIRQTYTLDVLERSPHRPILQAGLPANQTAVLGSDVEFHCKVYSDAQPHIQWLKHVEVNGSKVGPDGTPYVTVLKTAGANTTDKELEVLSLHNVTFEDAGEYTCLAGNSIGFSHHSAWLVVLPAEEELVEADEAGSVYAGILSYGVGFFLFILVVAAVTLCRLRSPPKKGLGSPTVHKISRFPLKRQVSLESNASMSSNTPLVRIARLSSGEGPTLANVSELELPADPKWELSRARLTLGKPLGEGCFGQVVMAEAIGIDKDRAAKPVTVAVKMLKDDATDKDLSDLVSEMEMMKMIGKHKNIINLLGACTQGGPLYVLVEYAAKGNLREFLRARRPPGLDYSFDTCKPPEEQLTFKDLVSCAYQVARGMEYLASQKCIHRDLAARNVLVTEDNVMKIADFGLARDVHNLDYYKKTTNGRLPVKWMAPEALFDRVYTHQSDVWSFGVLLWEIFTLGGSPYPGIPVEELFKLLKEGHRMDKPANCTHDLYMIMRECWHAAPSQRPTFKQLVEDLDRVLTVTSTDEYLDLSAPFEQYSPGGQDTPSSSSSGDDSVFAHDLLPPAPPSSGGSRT

[22] = biological target: TRKA (Homo sapiens (Human), UniProt P04629); type: biochemical; details: read-out: % Inhibition @ 0.1 μM, TrkA
[23] = biological target: FGFR2 (N549H) (Homo sapiens (Human), UniProt P21802, N549H); type: biochemical; details: read-out: % Inhibition @ 0.1 μM, FGFR2 (N549H)
[24] = biological target: Itk (Homo sapiens (Human), UniProt Q08881); type: biochemical; details: read-out: % Inhibition @ 0.1 μM, Itk
[25] = biological target: Abl (Q252H) (Homo sapiens (Human), UniProt P00519, Q252H); type: biochemical; details: read-out: % Inhibition @ 0.1 μM, Abl (Q252H)
[26] = biological target: Abl (T315I) (Homo sapiens (Human), UniProt P00519, T315I); type: biochemical; details: read-out: % Inhibition @ 0.1 μM, Abl (T315I)
[27] = biological target: Abl (Homo sapiens (Human), UniProt P00519); type: biochemical; details: read-out: % Inhibition @ 0.1 μM, Abl
[28] = biological target: EphB1 (Homo sapiens (Human), UniProt P54762); type: biochemical; details: read-out: % Inhibition @ 0.1 μM, EphB1
[29] = biological target: TrkB (Homo sapiens (Human), UniProt Q16620); assay: biochemical; details: read-out: % Inhibition @ 0.1 μM, TrkB
[30] = biological target: Abl (m) (Mus musculus (Mouse), UniProt P00520); type: biochemical; details: read-out: % Inhibition @ 0.1 μM, Abl (m)
[31] = biological target: IRAK1 (Homo sapiens (Human), UniProt P51617); type: biochemical; details: read-out: % Inhibition @ 0.1 μM, IRAK1
Sequence of IRAK1 (P51617 whole entry): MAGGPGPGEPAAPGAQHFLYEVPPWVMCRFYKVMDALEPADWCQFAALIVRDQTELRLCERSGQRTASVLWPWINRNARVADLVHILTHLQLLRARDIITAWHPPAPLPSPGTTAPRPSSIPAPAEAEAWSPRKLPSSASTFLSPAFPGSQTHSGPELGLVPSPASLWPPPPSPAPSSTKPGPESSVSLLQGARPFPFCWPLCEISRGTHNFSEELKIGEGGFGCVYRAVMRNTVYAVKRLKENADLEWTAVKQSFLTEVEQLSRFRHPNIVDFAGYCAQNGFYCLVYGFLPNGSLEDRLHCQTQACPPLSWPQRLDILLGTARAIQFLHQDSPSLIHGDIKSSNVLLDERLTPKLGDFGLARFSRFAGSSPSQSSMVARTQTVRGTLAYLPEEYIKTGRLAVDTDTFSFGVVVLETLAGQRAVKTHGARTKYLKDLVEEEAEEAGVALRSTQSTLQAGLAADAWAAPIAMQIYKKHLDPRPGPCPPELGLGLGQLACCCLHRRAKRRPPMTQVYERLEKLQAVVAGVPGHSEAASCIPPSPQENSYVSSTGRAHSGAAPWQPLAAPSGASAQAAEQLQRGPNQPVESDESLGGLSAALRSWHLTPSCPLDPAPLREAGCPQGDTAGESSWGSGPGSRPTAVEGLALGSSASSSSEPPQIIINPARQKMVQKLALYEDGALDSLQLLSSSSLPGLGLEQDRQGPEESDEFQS

[32] = biological target: FGFR1 (Homo sapiens (Human), UniProt P11362); type: biochemical; details: read-out: % Inhibition @ 0.1 μM, FGFR1
[33] = biological target: EphA1 (Homo sapiens (Human), UniProt P21709); type: biochemical; details: read-out: % Inhibition @ 0.1 μM, EphA1
Sequence of EphA1 (P21709 26-976): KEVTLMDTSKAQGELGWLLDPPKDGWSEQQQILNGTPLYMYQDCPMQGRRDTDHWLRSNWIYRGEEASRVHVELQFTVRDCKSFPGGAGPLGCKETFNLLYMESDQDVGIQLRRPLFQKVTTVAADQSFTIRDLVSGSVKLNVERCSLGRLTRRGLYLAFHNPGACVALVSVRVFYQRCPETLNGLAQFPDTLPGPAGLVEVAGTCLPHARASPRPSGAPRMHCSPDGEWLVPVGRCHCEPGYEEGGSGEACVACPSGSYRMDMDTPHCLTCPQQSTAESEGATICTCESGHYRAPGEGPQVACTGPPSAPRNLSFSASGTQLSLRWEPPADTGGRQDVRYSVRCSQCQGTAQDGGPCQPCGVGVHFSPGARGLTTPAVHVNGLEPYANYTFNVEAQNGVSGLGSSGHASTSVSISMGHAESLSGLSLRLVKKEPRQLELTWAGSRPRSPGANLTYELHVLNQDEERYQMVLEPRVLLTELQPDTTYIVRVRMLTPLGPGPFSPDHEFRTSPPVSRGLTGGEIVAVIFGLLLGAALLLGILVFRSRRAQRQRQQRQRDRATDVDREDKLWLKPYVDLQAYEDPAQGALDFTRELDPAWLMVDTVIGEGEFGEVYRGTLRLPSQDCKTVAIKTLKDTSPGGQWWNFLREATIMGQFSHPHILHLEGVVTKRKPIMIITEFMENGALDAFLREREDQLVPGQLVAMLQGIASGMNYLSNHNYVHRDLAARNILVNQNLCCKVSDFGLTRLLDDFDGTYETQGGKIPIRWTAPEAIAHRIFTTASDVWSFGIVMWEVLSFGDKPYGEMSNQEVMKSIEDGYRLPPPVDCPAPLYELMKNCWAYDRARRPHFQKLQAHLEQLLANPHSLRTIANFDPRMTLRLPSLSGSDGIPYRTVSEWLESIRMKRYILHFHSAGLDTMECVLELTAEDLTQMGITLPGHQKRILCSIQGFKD

[34] = biological target: GCK (Homo sapiens (Human), UniProt Q12851); type: biochemical; details: read-out: % Inhibition @ 0.1 μM, GCK
[35] = biological target: Tie2 (Homo sapiens (Human), UniProt Q02763); type: biochemical; details: read-out: % Inhibition @ 0.1 μM, Tie2
[36] = biological target: Lck activated (Homo sapiens (Human), UniProt P06239); type: biochemical; details: read-out: % Inhibition @ 0.1 μM, Lck activated
Sequence of Lck activated (P06239 whole entry): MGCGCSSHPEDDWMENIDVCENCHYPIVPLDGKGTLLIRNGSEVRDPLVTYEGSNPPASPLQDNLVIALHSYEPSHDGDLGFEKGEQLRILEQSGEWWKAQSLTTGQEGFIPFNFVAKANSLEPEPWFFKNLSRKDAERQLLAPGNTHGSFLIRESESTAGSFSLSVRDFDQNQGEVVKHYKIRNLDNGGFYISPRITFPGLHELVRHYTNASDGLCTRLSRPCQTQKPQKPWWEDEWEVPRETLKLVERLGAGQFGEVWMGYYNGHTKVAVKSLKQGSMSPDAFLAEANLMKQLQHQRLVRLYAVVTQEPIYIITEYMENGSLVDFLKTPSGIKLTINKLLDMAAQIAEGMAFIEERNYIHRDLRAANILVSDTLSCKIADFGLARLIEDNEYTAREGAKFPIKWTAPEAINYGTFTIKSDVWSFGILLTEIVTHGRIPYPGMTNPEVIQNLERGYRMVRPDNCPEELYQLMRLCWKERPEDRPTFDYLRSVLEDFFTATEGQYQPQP

## COc1ccc2c(c1)[C@]1(C[C@H]1c1ccc3c(/C=C/c4ccc(N5CCN(C)CC5)nc4)n[nH]c3c1)C(=O)N2 [Example A33, (1R,2S)-5′-methoxy-2-(3-((E)-2-(6-(4-methylpiperazin-1-yl)pyridin-3-yl)vinyl)-1H-indazol-6-yl)spiro[cyclopropane-1,3′-indolin]-2′-one 2,2,2-trifluoroacetate]
[1]
  inhibition at 0.1 µM: 28%
[2]
  inhibition at 0.1 µM: 94%
[3]
  inhibition at 0.1 µM: 42%
[4]
  inhibition at 0.1 µM: 68%
[5]
  inhibition at 0.1 µM: 23%
[6]
  inhibition at 0.1 µM: 82%
[7]
  inhibition at 0.1 µM: 48%
[8]
  inhibition at 0.1 µM: 18%
[9]
  inhibition at 0.1 µM: 49%
[10]
  inhibition at 0.1 µM: 96%
[11]
  inhibition at 0.1 µM: 96%
[12]
  inhibition at 0.1 µM: 95%
[13]
  inhibition at 0.1 µM: 91%
[14]
  inhibition at 0.1 µM: 93%
[15]
  inhibition at 0.1 µM: 67%
[16]
  inhibition at 0.1 µM: 78%
[17]
  inhibition at 0.1 µM: 100%
[18]
  inhibition at 0.1 µM: 40%
[19]
  inhibition at 0.1 µM: 32%
[20]
  inhibition at 0.1 µM: 43%
[21]
  inhibition at 0.1 µM: 91%
[22]
  inhibition at 0.1 µM: 97%
[23]
  inhibition at 0.1 µM: 75%
[24]
  inhibition at 0.1 µM: 34%
[25]
  inhibition at 0.1 µM: 83%
[26]
  inhibition at 0.1 µM: 94%
[27]
  inhibition at 0.1 µM: 72%
[28]
  inhibition at 0.1 µM: 34%
[29]
  inhibition at 0.1 µM: 98%
[30]
  inhibition at 0.1 µM: 96%
[31]
  inhibition at 0.1 µM: 24%
[32]
  inhibition at 0.1 µM: 87%
[33]
  inhibition at 0.1 µM: 22%
[34]
  inhibition at 0.1 µM: 51%
[35]
  inhibition at 0.1 µM: 83%
[36]
  inhibition at 0.1 µM: 41%
